The format of series [1] is physicochemical. Conditions: pH 13.5. How it is done:
Post-cycling analyses were carried out using ^1H NMR spectroscopy electrolytes. […] Taking into account the electrolyte-membrane contact time during this cycling test and the NMR spectroscopy resolution, the permeability coefficient of compound D4CH can be estimated below 10^−12 cm^2/s or less than 1% capacity loss per year of electrolyte-membrane contact.
Post-cycling analyses were carried out using ^1H NMR spectroscopy electrolytes. […] Taking into account the electrolyte-membrane contact time during this cycling test and the NMR spectroscopy resolution, the permeability coefficient of compound M4SH can be estimated below 10^−12 cm^2/s or less than 1% capacity loss per year of electrolyte-membrane contact.

Series [2] is described as follows: Cyclic voltammetry / linear sweep voltammetry, electrochemical parameters. It is filed as physicochemical. The note with it: for Peak-to-peak separation ΔEp: 100 mV/s, third cycle; for E^0′ apparent standard redox potential / E1/2 half-wave potential: 5 mM, pH 14, 1 M KOH; for E1/2 half-wave potential: RDE; for k^0′O × 10^−2 apparent heterogeneous rate constant: Gileadi's equation; for DO × 10^−6 diffusion coefficient: Randles-Sevcik. As to the method: Cyclic voltammetry experiments were performed at a 100 mV/s scan rate for compounds M3CH, D3CH, D4CH, M3SH, D3SH, M4SH and D4SH in solution at pH 13 (KOH 0.1 M) or pH 14 (KOH 1 M).
The electrochemical experiments were conducted on an electrochemical working station (BioLogic Science Instruments VSP) at 25° C. using a three-electrodes electrochemical cell, where a Pt wire was employed at the counter electrode (CE), an Ag/AgCl/KCl saturated electrode immerged in a 1 M KOH solution protected from the cell by a porous frit glass served as the reference electrode (RE) and a rotating disc electrode (RDE) mounted with a glassy carbon (GC, 7.069 mm^2) disk was used as the working electrode (WE), respectively. The potential was reported relative to the normal hydrogen electrode (NHE), which was converted from the Ag/AgCl reference electrode (0.230 V versus NHE). The ohmic drop between the WE and RE is determined by current interrupt experiments and leads to a value close to 0.7069 Ω·cm^2. All cyclic voltammetry experiments were conducted by alleviating most of this resistance (85%) using the potentiostat manual ohmic drop compensation. Before each electrochemical measurement, the GC disk electrode was polished using SiC P4000 foil.
Each recorded cyclic voltammetry of the reduction and the oxidation process of a compound at a given scan rate is analyzed by measuring ip,a=anodic peak current; ip,c=cathodic peak current; v=scan rate; Ep,a=anodic peak potential; Ep,c=cathodic peak potential; ΔEp=Ep,a−Ep,c; the apparent standard redox potential E^0′=[…].
Linear sweep voltammetry (LSV) using the RDE at various rotation speed (400 up to 1 000 RPM) were performed to determine the averaged half-wave potential E1/2.
The oxidation (DO) and the reduction (DR) diffusion coefficients were calculated using Randles-Sevcik (RS) equation ip=0.4463·n^3/2·F^3/2·A·C·v^1/2·D^1/2·R^−1/2·T^−1/2=Cye·v^1/2·D^1/2, n=number of electrons exchanged during the redox process; F=faradaic number=96485 C·mol^−1; A=electrode active surface; C=redox active molecule concentration; R=gas constant=8.314 J·K^−1·mol^−1; T=bulk temperature=299 K. The experiments are conducted by cyclic voltammetry at various scan rates ranging from 10 mV/s up to 20 V/s.
A graphic of lip,al and lip,cl=f(Cte×v^1/2) is plotted, if the redox process is reversible and diffusion controlled, the peak current should be proportional to the square root of the scan rate. The diffusion coefficients (oxidation and reduction) are then calculated by taking the square of the regression lines slopes. Diffusion coefficients (oxidation and reduction processes) are evaluated by plotting the peak current versus a constant multiplied by the square root of the scan rate. The plots regression line gives a straight line with perfect correlation coefficient (100%) confirming that the redox process is reversible and diffusion controlled. The square of each slope gives the associated coefficient diffusion in cm^2 s^−1.
The apparent heterogeneous rate constant during oxidation (k^0′O)/and reduction (k^0′R) process was calculated using Gileadi's equation (C. Rüssel, W. Jaenicke, Electrochimica Acta, Vol 27, N° 12, 1745-1750, 1982) log k^0′=−0.48α+0.52 +log[(nFαvcD)/(2.303RT)]^1/2; vc is the critical scan rate, it is calculated by plotting the peak potentials versus the logarithm of the scan rates, and is more precise when a very wide range of scan rates is used, which is the case here (0.010 up to 20 V·s^−1), it is determined at the x-axis of the point of intersection of the regression lines drawn at low and high scan rates; a is the transfer coefficient that is supposed to be close to 0.5 for all presented compounds.
Peak-to-peak separation ΔEp values were determined from the third cycle of each cyclic voltammogram (FIGS. 1 and 2) and are gathered in the following table 4.
The standard redox process reversibility evaluation is performed in diluted state, at 5 mM of concentration, at pH 14 buffered with 1 M of KOH. […]

A short description of series [3]: Degradation study by 1H NMR of electrolyte heated at 40° C. The class given is physicochemical. As to the method:
This study consists of NMR ^1H measurements of an electrolyte heated at 40° C. and kept under stirring at 300 RPM using a magnetic stirrer.
Such behavior was detailed in the literature (WO 2019/157437) and is characteristic of a nucleophilic attack i.e. of OH^− in strong alkaline environment causing the functionalized arm to be cleaved.

Series [4] in a line: Cycling tests of redox flow battery cells in galvanostatic mode. Conditions: Test 1: 0.5 M M3CH, pH 13.0.
Protocol: General procedure: Cell tests were carried out on a BCS-815 battery cycler (Biologic) at room temperature. The redox flow battery cell was composed of an Aquivion® membrane (E98-09S Solvay) with an 80 μm thickness serving as separator sandwiched between two GFD porous graphite felts (SGL Carbon group, GFD 4.6 EA), 4.6 mm thick with an active area of 5 or 25 cm^2. The electrodes were inserted into 3 mm PVC frames surrounded by EPDM gaskets. The current collectors were made of graphite composite material provided by SGL and the assembly was compressed by two PVC end-plates. […]
Capacity utilization was calculated by determining the ratio of the discharge capacity to the theoretical capacity available in the electrolytes. Coulombic efficiency was calculated by determining the ratio of the discharge capacity to the charge capacity. Energy efficiency was calculated by determining the ratio of the discharge energy to the charge energy. The energy density was calculated by determining the ratio of the discharge energy to the total volume of posolyte (positive electrolyte) and negolyte (negative electrolyte). […]
At the end of charge, a rest of 24 hours at ocv was added before each discharge, allowing to quantify the self-discharge of this system in conditions close to its future application.
A short description of series [5]: Solubility in aqueous solution at various pH by shake-flask method. The note with it: thermodynamic from solid.
Protocol: An aqueous solution (containing either KCl 1M, KOH 1M or H2SO4 1M) is added over 100 mg of compound by 20 μL portions until complete solubilization. We obtain an approximate range of solubility values calculated as following:
Smax˜(m/M)/V; m=mass of evaluated compound (g); M=molar mass of evaluated compound (g·mol^−1); V=added volume (L).
A short description of series [6]: Cycling tests of redox flow battery cells in constant power cycling mode. The note with it: extrapolated from 5 days; flowrate 0.5 mL/min/cm^2; negolyte 120/120/40/370 mL.

What is called solubility is how much of the substance goes into solution per volume. Low readings indicate a poorly soluble substance, high ones a readily soluble substance.

Values after ≈ are worked out from the molar mass of the structure shown.

Take `O=C(O)CCCCOc1ccc(OCCCCC(=O)O)c2c1C(=O)c1ccccc1C2=O` [Compound D4CH]: the “Solubility, solution at pH 14 (KOH 1M)” value came to 0.46 M. Further, the “compound degradation in negolyte after cycling” value in series [1] is listed as “No traces of compound D4CH degradation were visible”. Moreover, the “Peak-to-peak separation ΔEp” value in series [2] (pH 13 (KOH 0.1 M)) was determined as 328 mV. For the same compound, the “Peak-to-peak separation ΔEp” value in series [2] (pH 14 (KOH 1 M)) stood at 32 mV. The “Solubility, solution at pH 0 (H2SO4 1M)” value (pH 0) is on record as 0.00 M.
On to `O=C1c2ccccc2C(=O)c2c(OCCCCS(=O)(=O)O)ccc(O)c21` [Compound M4SH], for which the “Solubility, solution at pH 14 (KOH 1M)” value was found to be 0.46 M. Moreover, the “compound degradation in negolyte after cycling” value in series [1] was “no traces of compound M4SH degradation were visible”. Further, in series [2], the “E^0′ apparent standard redox potential” value is reported as −0.494 V vs NHE, the E1/2 half-wave potential is given as −0.494 V vs NHE, the “k^0′O × 10^−2 apparent heterogeneous rate constant” value was 3.1 × 10^−2 cm/s and the “DO × 10^−6 diffusion coefficient” value was 5.8 × 10^−6 cm^2/s. Further, in series [2] (pH 13 (KOH 0.1 M)), the “Peak-to-peak separation ΔEp” value is on record as 97 mV. In addition, the “Peak-to-peak separation ΔEp” value in series [2] (pH 14 (KOH 1 M)) amounted to 39 mV.
Regarding `O=C(O)CCCOc1ccc(O)c2c1C(=O)c1ccccc1C2=O` [Compound M3CH], the degradation rate entry in series [3] (0.05 M, pH 13.9, 40° C.) is “roughly 15 % per month”. For the same compound, the “degradation after a month” value in series [3] (0.4 M, pH 13.5, 0.8 M KOH, 0.3 M NaOH, 40° C.) is recorded as “did not undergo any degradation”. In addition, the solubility over state-of-charge result in series [4] is listed as “soluble at every state-of-charge”. In series [5] (aqueous H2SO4 1M solution, pH 0, aqueous buffer), this compound displayed a solubility of 310 mM (≈ 101 mg/mL). The same compound came in with a solubility in series [5] (aqueous KOH 1M solution, pH 14, aqueous buffer) of 530 mM (≈ 173 mg/mL). In series [6], the “Stability in cycles (−20%)” value is given as 28449 cycles and the “Stability in days (−20%)” value is 10942.1 days. In series [2], the “E^0′ apparent standard redox potential” value was −0.484 V vs NHE, the E1/2 half-wave potential is given as −0.484 V vs NHE, the “k^0′O × 10^−2 apparent heterogeneous rate constant” value was 2.3 × 10^−2 cm/s and the “DO × 10^−6 diffusion coefficient” value is given as 5.2 × 10^−6 cm^2/s. Moreover, the “Peak-to-peak separation ΔEp” value in series [2] (pH 13 (KOH 0.1 M)) worked out at 140 mV. In addition, the “Peak-to-peak separation ΔEp” value in series [2] (pH 14 (KOH 1 M)) amounted to 31 mV.
